Assay results as given in patent US20240043557A1, “A PLATFORM TO OBTAIN MONOCLONAL ANTIBODIES DIRECTED AGAINST PROCESSED TUMOR-SPECIFIC ANTIGENS” (Mediterranea Theranostic srl, priority 2020, published 2024).

B1: murine ADAM10 (endogenous in MTE 4-14 cells) (protein)
chain: TTLAERNTCQLYIQTDHLFFKYYGTREAVIAQISSHVKAIDTIYQTTDFSGIRNISFMVKRIRINTTSDEKDPTNPFRFPNIGVEKFLELNSEQNHDDYCLAYVFTDRDFDDGVLGLAWVGAPSGSSGGICEKSKLYSDGKKKSLNTGIITVQNYGSHVPPKVSHITFAHEVGHNFGSPHDSGTECTPGESKNLGQKENGNYIMYARATSGDKLNNNKFSLCSIRNISQVLEKKRNNCFVESGQPICGNGMVEQGEECDCGYSDQCKDDCCFDANQPEGKKCKLKPGKQCSPSQGPCCTAQCAFKSKSEKCRDDSDCAKEGICNGFTALCPASDPKPNFTDCNRHTQVCINGQCAGSICEKYDLEECTCASSDGKDDKELCHVCCMKKMAPSTCASTGSLQWSKQFSGRTITLQPGSPCNDFRGYCDVFMRCRLVDADGPLARLKKAIFSPQLYENIAEWIVAHWWAVLLMGIALIMLMAGFIKICSVHTPSSNPKLPPPKPLPGTLKRRRPPQPIQQPPRQRPRESYQMGHMRR
B2: ADAM10 siRNA: siRNA targeting murine ADAM10 (NM_007399.3, nt 292-309), SEQ ID NO: 57/58, expressed from pSUPER (nucleic acid, listed as Mus musculus)
chain 1: GATCCCCAGACATTATGAAGGATTATTTCAAGAGAATAATCCTTCATAATGTCTTTTTTGGAAA
chain 2: AGCTTTTCCAAAAAAGACATTATGAAGGATTATTCTCTTGAAATAATCCTTCATAATGTCTGGG
B3: siRNAs targeting MMP9: control siRNA targeting murine MMP9 (NM_013599, nt 1780-1798), SEQ ID NO: 59/60 (nucleic acid, listed as Mus musculus)
chain 1: GATCCCCCCGCAGACCAAGAGGGTTTTTCAAGAGAAAACCCTCTTGGTCTGCGGTTTTTGGAAA
chain 2: AGCTTTTCCAAAAACCGCAGACCAAGAGGGTTTTCTCTTGAAAAACCCTCTTGGTCTGCGGGGG

Experiments:
ADAM10 = target: T1, ADAM10 (Mus musculus, UniProt O35598); test: Western blot of Trop-2 processing in MTE 4-14/Trop-2 transfectants upon ADAM10 inhibition; assay type: cell-based, murine; conditions: for effect on Trop-2 processing: MTE 4-14/Trop-2 transfectants, WB; for minimum concentration found to be effective in inhibiting Trop-2 cleavage: concentration used, GM6001 24 hours, G1254023X two doses every 24 hours for 48 hours; for concentration found effective (up to): inhibition of Trop-2 cleavage
T1 construct: endogenous in cells; host or cells: MTE 4-14 (transformed murine thymus cells) transfected with Trop-2
T1 sequence (O35598 215-749): B1 chain
Protocol: ADAM 10 activity was inhibited in the MTE 4-14/Trop-2 transfectants by treatment with chemical inhibitors or mRNA silencing, and the effect on Trop-2 processing and on Trop-2-dependent cell growth was evaluated.
A. WB analysis following treatment with the broad-spectrum metalloprotease inhibitor GM6001 or with the specific ADAM10 inhibitor G1254023X or ADAM10 siRNA silencing, as indicated. […] T2-p: processed Trop-2; na: native form; pr: processed form.
Western blotting was performed as described (El Sewedy, Fomaro et al. 1998). Tumors from experimental animals were rapidly frozen upon surgical removal and stored at −80° C. Frozen samples were quickly thawed and homogenized with a Dounce homogenizer. Cleared homogenates of tumors and cultured cell lysates were analyzed by SDS-PAGE and transferred to nitrocellulose filters. Filters were hybridized with anti-human Trop-2 (affinity-purified polyclonal rabbit antiserum) or anti-ADAM10 antibodies.
Cells were treated with ADAM10 inhibitors for 24 hours at the minimum concentration found to be effective in inhibiting Trop-2 cleavage, then assayed as indicated. The GM6001 metalloprotease family inhibitor (Calbiochem) was dissolved in DMSO and used at 6.5-13 μM for 24 hours; up to 50 μM GM6001 were found effective. The G1254023X selective ADAM10 inhibitor, dissolved in DMSO, was kindly provided by Dr. A. Ludwig. Cells received two doses (10 μM) every 24 hours for 48 hours; up to 20 μM G1254023X were found effective. Control cells received vehicle alone.
(§1) Complementary strategies were utilized for siRNA design. Briefly, Tuschl′ criteria were applied, i.e. position in the mRNA, GC content, base composition and flanking sequences (Elbashir, Harborth et al. 2001). Invitrogen (maidesigner.invitrogen.com/maiexpress/) provides a proprietary algorithm that performs a statistical analysis of the target sequence, based on sequence composition, nucleotide content and thermodynamic properties, and compares candidates with validated siRNA sequences. The Whitehead Institute web site (jura.wi.mit.edu/bioc/siRNAext/) combines Tuschl′ criteria with predictions of binding energies for both sense and antisense siRNAs and with BLAST filtering of cross-hybridizing sequences. The Sonnhammer procedure (sonnhammer.cgb.ki.se/siSearch/) performs data mining (siSearch) on validated siRNA databanks, using motif rules and energy parameters. siRNA were synthesized that were identified by more than one method or considered optimal by any of the procedures above. Annealed oligos were subcloned into the pSUPER vector, kindly provided by Dr. R. Bernard (Brummelkamp, Bernards et al. 2002), under the control of the RNA polymerase III H1 gene promoter. siRNA expression constructs were transiently transfected MTE 4-14 transfectants, and cell growth was measured. siRNA-targeted transcript levels were quantified by real-time PCR. Negative control siRNAs directed towards irrelevant targets were used; these were chosen after extensive testing for lack of off-target influence on cell growth.

[1] = system: metastatic triple-negative breast cancer (TNBC); conditions: patients with metastatic TNBC; cited from earlier work
[2] = target: T2, Trop-2 (wild-type human Trop-2, NCBI accession number NP_002344.2)
T2 chain: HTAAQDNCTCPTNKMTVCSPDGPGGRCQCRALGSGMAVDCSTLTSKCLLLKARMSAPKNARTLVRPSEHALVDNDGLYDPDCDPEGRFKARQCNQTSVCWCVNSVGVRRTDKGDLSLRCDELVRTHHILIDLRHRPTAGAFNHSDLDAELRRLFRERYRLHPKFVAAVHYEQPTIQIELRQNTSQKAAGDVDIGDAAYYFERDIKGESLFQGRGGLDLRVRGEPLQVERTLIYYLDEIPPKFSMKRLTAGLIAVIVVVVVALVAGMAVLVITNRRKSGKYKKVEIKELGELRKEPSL

MTE 4-14 cells = test: In vitro growth of MTE 4-14 transfectants upon siRNA-mediated inhibition; assay type: cell-based, murine
Protocol: C. In vitro growth curves of MTE 4-14 cells transfected with the empty vector, wtTrop-2 or R87A-T88A Trop-2 upon ADAM10 (upper graphs, black,), MMP9 (lower graphs, black,) or control (human CD133, gray), siRNA-mediated inhibition. Bars: SEM. The p value for the only significant difference (ANOVA analysis) is indicated. Stars indicate post-hoc Bonferroni's t test p values (*≤0.05, **≤0.001).
Cell transfectants were seeded at 1.5−3.0×10^3 cells/well in 96-well plates (five replica wells per data point). Cell numbers were quantified by staining with crystal violet. Cell numbers were normalized against a standard reference curve of two-fold serially diluted cell samples.
as §1, with “Negative control siRNAs directed towards irrelevant targets were used; these were chosen after extensive testing for lack of off-target influence on cell growth.” left out

Molecule | effect on Trop-2 processing (ADAM10) | minimum concentration found to be effective in inhibiting Trop-2 cleavage (ADAM10) [µM] | concentration found effective (up to) (ADAM10) | other results
CNC(=O)[C@H](Cc1c[nH]c2ccccc12)NC(=O)[C@@H](CC(=O)NO)CC(C)C [GM6001] | reduction in Trop-2 processing | 6.5 to 13 | up to 50 μM | 
Sacituzumab govitecan-hziy |  |  |  | efficacy in patients [1]: effective
CNC(=O)[C@@H](NC(=O)[C@H](CCCc1ccccc1)[C@H](C)N(O)C=O)C(C)(C)C [G1254023X] | reduction in Trop-2 processing | 10 | up to 20 μM | 
B1 |  |  |  | Trop-2 processing (Western blot) after ADAM10 gene expression silencing by specific siRNAs [2]: Trop-2 processing was virtually abolished following ADAM10 silencing
B2 | inhibited Trop-2 processing |  |  | effect on in vitro growth of R87A-T88A or empty vector transfectants (MTE 4-14 cells; MTE 4-14 R87A-T88A or empty vector transfectants): no effect; effect on in vitro growth of wtTrop-2 transfectants (MTE 4-14 cells; MTE 4-14 wtTrop-2 transfectants): overrides Trop-2 dependent growth stimulus
B3 |  |  |  | effect on cell proliferation (MTE 4-14 cells; MTE 4-14 transfectants, siRNA targeting MMP9): no effect on cell proliferation
